From US12583939B2, “Bispecific antigen binding molecules that bind HER2, and methods of use thereof” (Regeneron Pharmaceuticals, Inc., priority 2020, dated 2026) come the findings set out here.

For test [1], the system named is T47D cells. Nature of the test: Internalization and cluster formation, 3D spheroids. The class given is cell-based. Conditions: 3D Spheroids (SD55); 10 ug/mL. How it is done: (§1) For 2D monolayer assays, T47D cells were plated on collagen-coated 96-well optical plates (Greiner, Cat #655936) at 25,000 cells/well in complete media and incubated overnight at 37° C. in 5% CO2. For 3D spheroids, cells were plated in low adhesion 96-well plates (Corning #4515) at 10,000 cells/well and incubated for 72 hours. The day of the assay, cells were incubated for 30 minutes with cold (4° C.) media containing 10 ug/mL of Alexa647 (Thermo, Cat #A37573) labeled antibodies. After, cells were washed twice (5 minutes, 100 ul, 4° C., complete medium) and incubated in complete media at 37° C. for 60 minutes. Cells were incubated for 30 minutes with cold (4° C.) media containing 4 ug/mL of Alexa488 anti-Human Fab (Jackson #109-547-003). […] After, the solution was replaced with PBS. Images were acquired with a Zeiss Spinning Disc Confocal Microscope and analyzed using Zeiss Zen Blue software. Quantification of the number of intracellular vesicles and surface clusters was performed in single confocal sections of representative images.

The test system of test [2] is T47D cells. Nature of the test: Internalization and cluster formation, 2D monolayers. The class given is cell-based. As to conditions: 2D monolayers (SD53); 10 ug/mL. How it is done:
as §1

Test [3] addresses T1, hErbB2-MMH (Homo sapiens, UniProt P04626).
T1 construct: myc-myc-hexahistidine (C); made in house
Nature of the test: Surface plasmon resonance binding kinetics at 25° C. How it is done: Equilibrium dissociation constants (KD values) for hErbB2.mmh binding to anti-HER2×HER2 antibodies conjugated with either M830 or M1 were determined using a real-time surface plasmon resonance biosensor assay on a MASS-2 instrument. The MASS-2 sensor surface was derivatized by amine coupling with a monoclonal mouse anti-human Fc antibody (REGN2567) to capture anti-HER2×HER2 ADC and parent unmodified antibodies expressed with human constant regions. […] Human hErbB2 was prepared in-house expressing a C-terminal myc-myc-hexahistidine tag (hErbB2-MMH). […] Association of hErbB2-MMH to each of the captured ADCs and monoclonal antibodies was monitored for 3 minutes. Subsequently, hErbB2-MMH dissociation was monitored for 10 minutes in HBS-EP running buffer. Anti-human Fc surface was regenerated by a brief injection of 20 mM H3PO4. All binding kinetic experiments were performed at 25° C.
Kinetic association (ka) and dissociation (kd) rate constants were determined by fitting the real-time sensorgrams to a 1:1 binding model using Scrubber 2.0c curve fitting software. All sensorgrams were double referenced by subtracting buffer injection sensorgram signal from the corresponding analyte sensorgram, thereby removing artifacts caused by dissociation of the antibody from the capture surface. Binding dissociation equilibrium constants (KD) and dissociative half-lives (t½) were calculated from the kinetic rate constants as: […]
For orientation: SPR reads the build-up and loss of mass on a sensor chip optically.

Regarding “CompAb2: parental HER2×HER2 bispecific antibody of MEDI4276 (SEQ ID NO: 52 and 53) [reference compound]”, in test [1], the Cluster % is 41% and the “Internalized Vesicles %” value is 100%. Further, in test [2], the Cluster % was determined as 28% and the “Internalized Vesicles %” value amounted to 100%. For the same substance, in test [3], the “Antigen Bound” value is 177.8 RU, the ka came to 290000 M⁻¹ s⁻¹ and the kd is not above 1e-05 s⁻¹.
